Structures can show the parent of a compound that is named as a salt.
Columns and labels:
[1] = tested on: cholesterol synthesis (plasma [14C]cholesterol); assay: AICS (Acute Inhibition of Cholesterol Synthesis) screen; assay type: in vivo, male Sprague-Dawley rats; conditions: cholestyramine-fed male rats, single oral gavage dose (dose not given), [1-14C]acetate i.p. one hour after dosing, blood after 50 minutes
Procedure: Additionally, the ability of compounds of the present invention to inhibit the biosynthesis of cholesterol was also measured by a method (designated AICS (Acute Inhibition of Cholesterol Synthesis) screen) which utilizes the procedure described by A. W. Alberts, et al, Proceedings of the National Academy of Sciences, Volume 77, pages 3957-3961 (1980).
In this method male Sprague-Dawley rats (200 g body weight) previously fed 5% cholestyramine for three days were randomly divided into groups (N=5/group) and given a single dose of vehicle (controls) or compound by an oral gavage at the indicated doses. One hour after drug dosing, all rats were injected intraperitoneally with sodium[1-^14 C]acetate (18.75 μCi/rat in 0.2 ml saline). After 50 minutes, blood samples were taken, plasma obtained by centrifugation, and plasma [^14 C]cholesterol measured after saponification and extraction.

[2] = tested on: sterol synthesis (rat liver homogenate); assay: CSI (Cholesterol Synthesis Inhibition) screen; assay type: biochemical; conditions: 14C-acetate incorporation into nonsaponifiable lipid, one-hour period
Procedure: The ability of compounds of the present invention to inhibit the biosynthesis of cholesterol was measured by a method (designated CSI (Cholesterol Synthesis Inhibition) screen) which utilizes the procedure described by R. E. Dugan et al, Archives of Biochemistry and Biophysics, Volume 152, pages 21-27 (1972). In this method, the level of HMG-CoA enzyme activity in standard laboratory rats is increased by feeding the rats a chow diet containing 5% cholestyramine for four days, after which the rats are sacrificed.
The rat livers are homogenized, and the incorporation of ^14 C-acetate into nonsaponifiable lipid by the rat liver homogenate is measured. The micromolar concentration of compound required for 50% inhibition of sterol synthesis over a one-hour period is measured, and expressed as an IC50 value.

| IC50 [2] [nM] | Structure (SMILES) | AICS % Inhibition [1] [%] |
| --- | --- | --- |
| – | CN(C)c1nc2ccccc2c(-c2ccc(F)cc2)c1/C=C/[C@@H]1C[C@@H](O)CC(=O)O1 (relative stereo) [1 (lactone), [4α,6β(E)]-6-[2-[2-(Dimethylamino)-4-(4-fluorophenyl)-3-quinolinyl]ethenyl]tetrahydro-4-hydroxy-2H-pyran-2-one] | 52 |
| 47 | CN(C)c1nc2ccccc2c(-c2ccc(F)cc2)c1/C=C/[C@@H](O)C[C@@H](O)CC(=O)O (relative stereo) [[R*,S*-(E)]-7-[2-dimethylamino)-4-(4-fluorophenyl)-3-quinolinyl]-3,5-dihydroxy-6-heptenoic acid, monosodium salt] | 49 |

Source: patent publication US4923861A, “6-(2-(2-(Substituted amino)-3-quinolinyl) ethenyl and ethyl) tetrahydro-4-hydroxypyran-2-one inhibitors of cholesterol biosynthesis” (Warner-Lambert Company, priority 1989, dated 1990)
